From patent publication US20240384350A1, “METHODS OF TREATING CANCER WITH KINASE INHIBITORS” (BOARD OF REGENTS, THE UNIVERSITY OF TEXAS SYSTEM, priority 2021, published 2024)

Tests used:
Assay in all cases: Ba/F3 drug screening, Cell Titer Glo, IC50 Mut/WT
Assay type in all cases: cell-based
EGFR L858R/C797S = molecular target: T1, EGFR L858R/C797S (Homo sapiens, UniProt P00533, C797S/L858R); details: Ba/F3 cells, EGFR L858R/C797S (PACC), Mut/WT
T1 construct: expressed in transfected cells; host or cells: Ba/F3
Procedure: (§1) Data represent the ratio of the IC50 value for a given TKI for cells with a PACC EGFR mutation to the IC50 value for cells with wildtype EGFR.
(§2) Ba/F3 cell generation, drug screening, and IC50 approximations. Ba/F3 cells were obtained as a gift from Dr. Gordon Mills (MD Anderson Cancer Center), and maintained in RPMI (Sigma) containing 10% FBS, 1% penicillin/streptomycin, and 10 ng/ml recombinant mIL-3 (R&D Biosystems). To establish stable Ba/F3 cell lines, Ba/F3 cells were transduced with retroviruses containing mutant EGFR plasmids for 12-24 hours.
(§3) After 48-72 hours of transduction, 2 μg/ml puromycin (Invitrogen) was added to Ba/F3 cell lines in complete RPMI. To select for EGFR positive cell lines, cells were stained with PE-EGFR (Biolegend) and sorted by FACS. After sorting, EGFR positive cells were maintained in RPMI containing 10% FBS, 1% penicillin/streptomycin, and 1 ng/ml EGF to support cell viability. Drug screening was performed as previously described^41,42. Shortly, cells were plated in 384-well plates (Greiner Bio-One) at 2000-3000 cells per well in technical triplicate. Seven different concentrations of TKIs or DMSO vehicle were added to reach a final volume of 40 μL per well. After 72 hours, 11 μL of Cell Titer Glo (Promega) was added to each well. Plates were incubated for a minimum of 10 minutes, and bioluminescence was determined using a FLUOstar OPTIMA plate reader (BMG LABTECH). Raw bioluminescence values were normalized to DMSO control treated cells, and values were plotted in GraphPad Prism. […] Drug screens were performed in technical triplicate on each plate and either duplicate or triplicate biological replicates.

EGFR L858R T790M V843I = molecular target: T2, EGFR L858R T790M V843I (Homo sapiens, UniProt P00533, L858R/T790M/V843I); details: T790M-like-3S, 72 hours
T2 construct: expressed in transfected cells; host or cells: Ba/F3

EGFR S768I/V769L = molecular target: T3, EGFR S768I/V769L (Homo sapiens, UniProt P00533, S768I/V769L); details: Ba/F3 cells, EGFR S768I/V769L (PACC), Mut/WT
T3 construct: host or cells: Ba/F3

EGFR N771dupN G724S = molecular target: T4, EGFR N771dupN G724S (Homo sapiens, UniProt P00533, DUP771-771/G724S); details: Ex20, 72 hours
T4 construct: expressed in transfected cells; host or cells: Ba/F3 cells, retroviral pBabe-Puro vector (vector made by GeneScript from EGFR G724S, c.2313_2314insAAC)

EGFR S784F = molecular target: T5, EGFR S784F (Homo sapiens, UniProt P00533, S784F); details: Classical-Like, 72 hours
T5 construct: expressed in transfected cells; host or cells: Ba/F3 cells, retroviral pBabe-Puro vector (vector made by GeneScript from EGFR WT)
Procedure: (§4) Data represent the ratio of the IC50 value for a given TKI for cells with a classical-like EGFR mutation to the IC50 value for cells with wildtype EGFR.
as §2
(§5) After 48-72 hours of transduction, 2 μg/ml puromycin (Invitrogen) was added to Ba/F3 cell lines in complete RPMI. To select for EGFR positive cell lines, cells were stained with PE-EGFR (Biolegend) and sorted by FACS. After sorting, EGFR positive cells were maintained in RPMI containing 10% FBS, 1% penicillin/streptomycin, and 1 ng/ml EGF to support cell viability. […] Shortly, cells were plated in 384-well plates (Greiner Bio-One) at 2000-3000 cells per well in technical triplicate. Seven different concentrations of TKIs or DMSO vehicle were added to reach a final volume of 40 μL per well. After 72 hours, 11 μL of Cell Titer Glo (Promega) was added to each well. Plates were incubated for a minimum of 10 minutes, and bioluminescence was determined using a FLUOstar OPTIMA plate reader (BMG LABTECH). Raw bioluminescence values were normalized to DMSO control treated cells, and values were plotted in GraphPad Prism. […] Drug screens were performed in technical triplicate on each plate and either duplicate or triplicate biological replicates.

EGFR S768dupSVD = molecular target: T6, EGFR S768dupSVD (Homo sapiens, UniProt P00533, DUP768-770); details: Ex20, 72 hours
T6 construct: expressed in transfected cells; host or cells: Ba/F3 cells, retroviral pBabe-Puro vector

EGFR E709A G719S = molecular target: T7, EGFR E709A G719S (Homo sapiens, UniProt P00533, E709A/G719S); details: Ba/F3 cells, EGFR E709A G719S (PACC), Mut/WT
T7 construct: expressed in transfected cells; host or cells: Ba/F3
Procedure: as §1, §2, §3

EGFR E709K = molecular target: T8, EGFR E709K (Homo sapiens, UniProt P00533, E709K); details: Ba/F3 cells, EGFR E709K (PACC), Mut/WT
T8 construct: expressed in transfected cells; host or cells: Ba/F3

EGFR L858R/T790M/L718Q = molecular target: T9, EGFR L858R/T790M/L718Q (Homo sapiens, UniProt P00533, L718Q/L858R/T790M); details: T790M-like-3R, 72 hours
T9 construct: expressed in transfected cells; host or cells: Ba/F3

EGFR R776H = molecular target: T10, EGFR R776H (Homo sapiens, UniProt P00533, R776H); details: Ba/F3 cells, EGFR R776H (PACC), Mut/WT
T10 construct: host or cells: Ba/F3

EGFR L833V = molecular target: T11, EGFR L833V (Homo sapiens, UniProt P00533, L833V); details: Classical-Like, 72 hours
T11 construct: expressed in transfected cells; host or cells: Ba/F3 cells, retroviral pBabe-Puro vector
Procedure: as §4, §2, §5

EGFR G719A/R776C = molecular target: T12, EGFR G719A/R776C (Homo sapiens, UniProt P00533, G719A/R776C); details: Ba/F3 cells, EGFR G719A/R776C (PACC), Mut/WT
T12 construct: expressed in transfected cells; host or cells: Ba/F3
Procedure: as §1, §2, §3

EGFR H773insNPH = molecular target: T13, EGFR H773insNPH (Homo sapiens, UniProt P00533, INS773NPH); details: Ex20, 72 hours
T13 construct: expressed in transfected cells; host or cells: Ba/F3 cells, retroviral pBabe-Puro vector
Procedure: Data represent the ratio of the IC50 value for a given TKI for cells with an ex20ins EGFR mutation to the IC50 value for cells with wildtype EGFR.
as §2
After 48-72 hours of transduction, 2 μg/ml puromycin (Invitrogen) was added to Ba/F3 cell lines in complete RPMI. To select for EGFR positive cell lines, cells were stained with PE-EGFR (Biolegend) and sorted by FACS. After sorting, EGFR positive cells were maintained in RPMI containing 10% FBS, 1% penicillin/streptomycin, and 1 ng/ml EGF to support cell viability. Drug screening was performed as previously described^41,42. Shortly, cells were plated in 384-well plates (Greiner Bio-One) at 2000-3000 cells per well in technical triplicate. Seven different concentrations of TKIs or DMSO vehicle were added to reach a final volume of 40 μL per well. After 72 hours, 11 μL of Cell Titer Glo (Promega) was added to each well. Plates were incubated for a minimum of 10 minutes, and bioluminescence was determined using a FLUOstar OPTIMA plate reader (BMG LABTECH). Raw bioluminescence values were normalized to DMSO control treated cells, and values were plotted in GraphPad Prism. […] Drug screens were performed in technical triplicate on each plate and either duplicate or triplicate biological replicates. […] Statistical differences between groups were determined by ANOVA as described in the figure legends.

EGFR Ex19del/T790M/L792H = molecular target: T14, EGFR Ex19del/T790M/L792H (Homo sapiens, UniProt P00533, DEL746-750/L792H/T790M); details: T790M-like-3R, 72 hours
T14 construct: expressed in transfected cells; host or cells: Ba/F3
Procedure: Data represent the ratio of the IC50 value for a given TKI for cells with a T790M-like-3R EGFR mutation to the IC50 value for cells with wildtype EGFR.
as §2
After 48-72 hours of transduction, 2 μg/ml puromycin (Invitrogen) was added to Ba/F3 cell lines in complete RPMI. To select for EGFR positive cell lines, cells were stained with PE-EGFR (Biolegend) and sorted by FACS. After sorting, EGFR positive cells were maintained in RPMI containing 10% FBS, 1% penicillin/streptomycin, and 1 ng/ml EGF to support cell viability. […] Shortly, cells were plated in 384-well plates (Greiner Bio-One) at 2000-3000 cells per well in technical triplicate. Seven different concentrations of TKIs or DMSO vehicle were added to reach a final volume of 40 μL per well. After 72 hours, 11 μL of Cell Titer Glo (Promega) was added to each well. Plates were incubated for a minimum of 10 minutes, and bioluminescence was determined using a FLUOstar OPTIMA plate reader (BMG LABTECH). Raw bioluminescence values were normalized to DMSO control treated cells, and values were plotted in GraphPad Prism. […] Drug screens were performed in technical triplicate on each plate and either duplicate or triplicate biological replicates. […] Statistical differences between groups were determined by ANOVA as described in the figure legends.

EGFR T725M = molecular target: T15, EGFR T725M (Homo sapiens, UniProt P00533, T725M); details: Classical-Like, 72 hours
T15 construct: expressed in transfected cells; host or cells: Ba/F3 cells, retroviral pBabe-Puro vector (vector made by GeneScript from EGFR WT)
Procedure: as §4, §2, §5

EGFR S720P = molecular target: T16, EGFR S720P (Homo sapiens, UniProt P00533, S720P); details: Classical-Like, 72 hours
T16 construct: expressed in transfected cells; host or cells: Ba/F3 cells, retroviral pBabe-Puro vector (vector made by GeneScript from EGFR WT)
Procedure: as §4, §2, §5

EGFR Ex19del T790M = molecular target: T17, EGFR Ex19del T790M (Homo sapiens, UniProt P00533, DEL746-750/T790M); details: T790M-like-3S, 72 hours
T17 construct: expressed in transfected cells; host or cells: Ba/F3

EGFR Ex19del/L792H = molecular target: T18, EGFR Ex19del/L792H (Homo sapiens, UniProt P00533, DEL746-750/L792H); details: Ba/F3 cells, EGFR Ex19del/L792H (PACC), Mut/WT
T18 construct: expressed in transfected cells; host or cells: Ba/F3

EGFR G719S T790M = molecular target: T19, EGFR G719S T790M (Homo sapiens, UniProt P00533, G719S/T790M); details: T790M-like-3S, 72 hours
T19 construct: expressed in transfected cells; host or cells: Ba/F3
Procedure: (§6) Data represent the ratio of the IC50 value for a given TKI for cells with a T790M-like-3S EGFR mutation to the IC50 value for cells with wildtype EGFR.
as §2, §3

EGFR T790M = molecular target: T20, EGFR T790M (Homo sapiens, UniProt P00533, T790M); details: T790M-like-3S, 72 hours
T20 construct: expressed in transfected cells; host or cells: Ba/F3
Procedure: as §6, §2, §3

EGFR L718Q T790M = molecular target: T21, EGFR L718Q T790M (Homo sapiens, UniProt P00533, L718Q/T790M); details: T790M-like-3R, 72 hours
T21 construct: expressed in transfected cells; host or cells: Ba/F3

EGFR Ex19del = molecular target: T22, EGFR Ex19del (Homo sapiens, UniProt P00533, DEL746-750); details: Classical-Like, 72 hours
T22 construct: expressed in transfected cells; host or cells: Ba/F3 cells, retroviral pBabe-Puro vector

EGFR E709A = molecular target: T23, EGFR E709A (Homo sapiens, UniProt P00533, E709A); details: Ba/F3 cells, EGFR E709A (PACC), Mut/WT
T23 construct: expressed in transfected cells; host or cells: Ba/F3

EGFR G719S = molecular target: T24, EGFR G719S (Homo sapiens, UniProt P00533, G719S); details: Ba/F3 cells, EGFR G719S (PACC), Mut/WT
T24 construct: expressed in transfected cells; host or cells: Ba/F3
Procedure: as §1, §2, §3

EGFR L858R/L718V = molecular target: T25, EGFR L858R/L718V (Homo sapiens, UniProt P00533, L718V/L858R); details: Ba/F3 cells, EGFR L858R/L718V (PACC), Mut/WT
T25 construct: host or cells: Ba/F3

EGFR G719A L861Q = molecular target: T26, EGFR G719A L861Q (Homo sapiens, UniProt P00533, G719A/L861Q); details: Ba/F3 cells, EGFR G719A L861Q (PACC), Mut/WT
T26 construct: expressed in transfected cells; host or cells: Ba/F3

Row | SMILES | ratio of the IC50 value for cells with a PACC EGFR mutation to the IC50 value for cells with wildtype EGFR (EGFR L858R/C797S) | ratio of IC50 for cells with mutant EGFR to IC50 for cells with wildtype EGFR (Mut/WT) (EGFR L858R T790M V843I) | ratio of the IC50 value for cells with a PACC EGFR mutation to the IC50 value for cells with wildtype EGFR (EGFR S768I/V769L) | ratio of IC50 for cells with mutant EGFR to IC50 for cells with wildtype EGFR (Mut/WT) (EGFR N771dupN G724S) | ratio of IC50 for cells with mutant EGFR to IC50 for cells with wildtype EGFR (Mut/WT) (EGFR S784F) | ratio of IC50 for cells with mutant EGFR to IC50 for cells with wildtype EGFR (Mut/WT) (EGFR S768dupSVD) | ratio of the IC50 value for cells with a PACC EGFR mutation to the IC50 value for cells with wildtype EGFR (EGFR E709A G719S) | ratio of the IC50 value for cells with a PACC EGFR mutation to the IC50 value for cells with wildtype EGFR (EGFR E709K) | ratio of IC50 for cells with mutant EGFR to IC50 for cells with wildtype EGFR (Mut/WT) (EGFR L858R/T790M/L718Q) | ratio of the IC50 value for cells with a PACC EGFR mutation to the IC50 value for cells with wildtype EGFR (EGFR R776H) | ratio of IC50 for cells with mutant EGFR to IC50 for cells with wildtype EGFR (Mut/WT) (EGFR L833V) | ratio of the IC50 value for cells with a PACC EGFR mutation to the IC50 value for cells with wildtype EGFR (EGFR G719A/R776C) | ratio of IC50 for cells with mutant EGFR to IC50 for cells with wildtype EGFR (Mut/WT) (EGFR H773insNPH) | ratio of IC50 for cells with mutant EGFR to IC50 for cells with wildtype EGFR (Mut/WT) (EGFR Ex19del/T790M/L792H) | ratio of IC50 for cells with mutant EGFR to IC50 for cells with wildtype EGFR (Mut/WT) (EGFR T725M) | ratio of IC50 for cells with mutant EGFR to IC50 for cells with wildtype EGFR (Mut/WT) (EGFR S720P) | ratio of IC50 for cells with mutant EGFR to IC50 for cells with wildtype EGFR (Mut/WT) (EGFR Ex19del T790M) | ratio of the IC50 value for cells with a PACC EGFR mutation to the IC50 value for cells with wildtype EGFR (EGFR Ex19del/L792H) | ratio of IC50 for cells with mutant EGFR to IC50 for cells with wildtype EGFR (Mut/WT) (EGFR G719S T790M) | ratio of IC50 for cells with mutant EGFR to IC50 for cells with wildtype EGFR (Mut/WT) (EGFR T790M) | other results
1 | C=CC(=O)Nc1cc(Nc2ncc(C(=O)OC(C)C)c(-c3cn(C)c4ccccc34)n2)c(OC)cc1N(C)CCN(C)C [TAK-788 (mobocertinib), mobocertinib] | 57.42 | 1.649 | 0.04994 | 1.553 | 0.01487 | 0.2515 | 1.298 | 10.68 | 149.2 | 2.853 | 0.1367 | 0.8144 | 0.2952 | 0.885 | 1.082 | 0.111 | 0.2391 | 6.547 | 1.302 | 1.315 | ratio of IC50 for cells with mutant EGFR to IC50 for cells with wildtype EGFR (Mut/WT) (EGFR L718Q T790M): 43.09; ratio of IC50 for cells with mutant EGFR to IC50 for cells with wildtype EGFR (Mut/WT) (EGFR Ex19del): 0.02859; ratio of the IC50 value for cells with a PACC EGFR mutation to the IC50 value for cells with wildtype EGFR (EGFR E709A): 1.583; ratio of the IC50 value for cells with a PACC EGFR mutation to the IC50 value for cells with wildtype EGFR (EGFR G719S): 2.056; ratio of the IC50 value for cells with a PACC EGFR mutation to the IC50 value for cells with wildtype EGFR (EGFR L858R/L718V): 3.491; ratio of the IC50 value for cells with a PACC EGFR mutation to the IC50 value for cells with wildtype EGFR (EGFR G719A L861Q): 1.066
2 | C=CC(=O)Nc1cc(Nc2nccc(-c3c[nH]c4ccccc34)n2)c(OC)cc1N(C)CCN(C)C [AZ5104] | 119.2 | 0.6934 | 0.599 | 1.826 | 0.01428 | 1.73 | 0.797 | 0.207 | 29.86 | 3.409 | 0.4446 | 0.2136 | 3.997 | 1.486 | 0.959 | 0.009841 | 0.1837 | 1.778 | 0.1839 | 1.125 | ratio of IC50 for cells with mutant EGFR to IC50 for cells with wildtype EGFR (Mut/WT) (EGFR L718Q T790M): 26.6; ratio of IC50 for cells with mutant EGFR to IC50 for cells with wildtype EGFR (Mut/WT) (EGFR Ex19del): 0.03035; ratio of the IC50 value for cells with a PACC EGFR mutation to the IC50 value for cells with wildtype EGFR (EGFR E709A): 0.219; ratio of the IC50 value for cells with a PACC EGFR mutation to the IC50 value for cells with wildtype EGFR (EGFR G719S): 0.3756; ratio of the IC50 value for cells with a PACC EGFR mutation to the IC50 value for cells with wildtype EGFR (EGFR L858R/L718V): 1.64; ratio of the IC50 value for cells with a PACC EGFR mutation to the IC50 value for cells with wildtype EGFR (EGFR G719A L861Q): 0.8044
